Experimental data as given in ChEMBL document CHEMBL6087404, “Naphthoindole-2-carboxamides as a lipophilic chemotype of hetarene-anthraquinones potent against P-gp resistant tumor cells” (Eur J Med Chem, 2025).
Calls of active or inactive are those of the source. The rule behind the calls is not given here.

Tests used:
K562/4 = experiment: Antiproliferative activity against human K562/4 cells incubated for 72 hrs by MTT assay; type: functional, cell-based; conditions: K562/4, 72 h
[1] = Selectivity index, ratio of IC50 for human hFB-hTERT6 cells to IC50 for human K562 cells; type: toxicity; conditions: hFB-hTERT6 cells and K562 cells, read-out: Ratio IC50
[2] = Antiproliferative activity against hFB-hTERT6 cells incubated for 72 hrs by MTT assay; type: toxicity, cell-based; conditions: human
A549 = experiment: Antiproliferative activity against human A549 cells incubated for 72 hrs by MTT assay; type: functional, cell-based; conditions: A549, 72 h
[3] = Resistance index, ratio of IC50 for human K562/4 cells to IC50 for human K562 cells; type: functional
K562 = experiment: Antiproliferative activity against human K562 cells incubated for 72 hrs by MTT assay; type: functional, cell-based; conditions: K562, 72 h
[4] = Drug uptake in cytoplasmic membrane of human HCT-116 cells at 3 uM incubated for 1 hr by confocal microscopy; type: ADME, cell membranes, Cytoplasm membrane; conditions: hct-116, 1 h
[5] = Drug uptake in P-gp+ human […] cells at 3 uM incubated for 10 mins by confocal microscopy; type: ADME, cell-based; conditions: k562/4, 10 min
DNA = experiment: Binding affinity to pBR322 plasmid DNA (unknown origin) assessed as effect on electrophoretic mobility of DNA at 1 to 40 uM incubated for 30 mins; type: nucleic-acid assay; conditions: Escherichia coli, dose 1-40 µM
[6] = Drug uptake in human HCT-116 cells at 3 uM incubated for 10 mins by confocal microscopy; type: ADME, cell-based; conditions: hct-116, 10 min
[7] = target: T1, DNA topoisomerase 1 (Homo sapiens) (UniProt P11387); experiment: Inhibition of Top1 (unknown origin)-mediated unwinding of supercoiled DNA at 5 uM incubated for 30 mins by electrophoretic analysis
T1 sequence (whole entry): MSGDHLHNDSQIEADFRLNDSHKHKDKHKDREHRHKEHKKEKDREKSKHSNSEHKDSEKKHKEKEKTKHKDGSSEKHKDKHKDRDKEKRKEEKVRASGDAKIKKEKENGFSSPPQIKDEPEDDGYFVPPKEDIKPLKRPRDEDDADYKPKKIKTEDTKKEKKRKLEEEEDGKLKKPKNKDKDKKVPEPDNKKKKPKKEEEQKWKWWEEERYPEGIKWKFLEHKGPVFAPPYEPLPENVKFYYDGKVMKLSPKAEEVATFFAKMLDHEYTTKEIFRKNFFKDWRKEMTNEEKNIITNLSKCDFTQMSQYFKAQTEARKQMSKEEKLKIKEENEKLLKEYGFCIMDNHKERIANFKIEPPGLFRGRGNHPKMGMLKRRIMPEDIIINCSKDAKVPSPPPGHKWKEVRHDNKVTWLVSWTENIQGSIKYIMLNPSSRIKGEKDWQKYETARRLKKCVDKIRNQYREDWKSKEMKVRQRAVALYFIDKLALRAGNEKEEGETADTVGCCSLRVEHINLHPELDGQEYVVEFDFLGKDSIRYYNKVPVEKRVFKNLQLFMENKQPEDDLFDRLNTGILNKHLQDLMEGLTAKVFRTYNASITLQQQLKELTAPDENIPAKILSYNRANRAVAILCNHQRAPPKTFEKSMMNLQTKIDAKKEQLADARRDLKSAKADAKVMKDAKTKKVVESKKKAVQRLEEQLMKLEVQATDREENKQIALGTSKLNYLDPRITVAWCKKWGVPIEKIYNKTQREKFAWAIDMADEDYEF

[8] = Drug uptake in lysosome of human HCT-116 cells at 3 uM incubated for 1 hr by LysoTracker Deep Red dye based confocal microscopy; type: ADME, subcellular; conditions: hct-116, 1 h
[9] = Drug uptake in nuclear membrane of human HCT-116 cells at 3 uM incubated for 1 hr by confocal microscopy; type: ADME, cell membranes; conditions: hct-116, 1 h
[10] = Drug uptake in human K562 cells at 2 uM incubated for 3 to 120 hrs by flow cytometry; type: ADME, cell-based; conditions: k562, 2 µM, time 3-120 hrs

Compound CS(=O)(=O)O.O=C(NC1CCCNC1)c1cc2c(O)c3c(c(O)c2[nH]1)C(=O)c1ccccc1C3=O (racemic) has an IC50 (K562/4) of 2.3 µM, a selectivity ratio [1] of 3.7 and an IC50 at 72 h [2] of 4.4 µM. For the same compound, the IC50 (A549) was 9 µM, the “Ratio IC50” value [3] was 1.9 and the IC50 (K562) was 1.2 µM.

N[C@H]1CCN(C(=O)c2cc3c(O)c4c(c(O)c3o2)C(=O)c2ccccc2C4=O)C1 gave an IC50 (K562/4) of 1.7 µM, a selectivity ratio [1] of over 31.2 and an IC50 at 72 h [2] of over 50 µM. The IC50 (A549) was over 50 µM, the “Ratio IC50” value [3] was 1.1 and the IC50 (K562) was 1.6 µM.

With Cc1[nH]c2c(O)c3c(c(O)c2c1C(=O)N1CC[C@H](N)C1)C(=O)c1ccccc1C3=O the Drug uptake [4] was “Not_active”, the Drug uptake [5] was “Active” and the IC50 (K562/4) was 50 µM. For the same compound, the Activity (DNA) was “inactive”, the selectivity ratio [1] was 12.5 and the Drug uptake [6] was “Active”. For the same compound, the IC50 at 72 h [2] was 5 µM, the inhibition [7] was “Active; Slightly Less Potent” and the Drug uptake [8] was “Active”. For the same compound, the IC50 (A549) was 1.9 µM, the “Ratio IC50” value [3] was 125 and the Drug uptake [9] was “Not_active”. For the same compound, the IC50 (K562) was 0.4 µM and the Drug uptake [10] was “Not_active”.

In the case of CS(=O)(=O)O.NC1CCCN(C(=O)c2cc3c(O)c4c(c(O)c3[nH]2)C(=O)c2ccccc2C4=O)C1 (racemic), the IC50 (K562/4) is reported as 1 µM, the selectivity ratio [1] is reported as 1.5 and the IC50 at 72 h [2] is reported as 1.8 µM. The IC50 (A549) was 1.2 µM, the “Ratio IC50” value [3] was 0.8 and the IC50 (K562) was 1.2 µM.

Work on CS(=O)(=O)O.O=C(NC1CCNCC1)c1cc2c(O)c3c(c(O)c2[nH]1)C(=O)c1ccccc1C3=O yielded an IC50 (K562/4) of 41 µM, a selectivity ratio [1] of 1.4 and an IC50 at 72 h [2] of 2.6 µM. The IC50 (A549) was 4.2 µM, the “Ratio IC50” value [3] was 22.8 and the IC50 (K562) was 1.8 µM.

For N[C@H]1CCN(C(=O)c2cc3c(O)c4c(c(O)c3s2)C(=O)c2ccccc2C4=O)C1, the IC50 (K562/4) was 0.4 µM, the selectivity ratio [1] was 6 and the IC50 at 72 h [2] was 1.8 µM. For the same compound, the IC50 (A549) was 2 µM and the “Ratio IC50” value [3] was 1.2.

With CS(=O)(=O)O.O=C(N[C@H]1CCNC1)c1cc2c(O)c3c(c(O)c2[nH]1)C(=O)c1ccccc1C3=O the IC50 (K562/4) was 43 µM, the selectivity ratio [1] was 1.6 and the IC50 at 72 h [2] was 5.5 µM. The IC50 (A549) was 4.3 µM, the “Ratio IC50” value [3] was 12.3 and the IC50 (K562) was 3.5 µM.

CS(=O)(=O)O.O=C1c2ccccc2C(=O)c2c1c(O)c1cc(C(=O)N3CCNCC3)[nH]c1c2O showed an IC50 (K562/4) of 1.2 µM, a selectivity ratio [1] of 3.3 and an IC50 at 72 h [2] of 3.3 µM. The IC50 (A549) was 4.4 µM, the “Ratio IC50” value [3] was 1.2 and the IC50 (K562) was 1 µM.

Compound CS(=O)(=O)O.N[C@@H]1CCN(C(=O)c2cc3c(O)c4c(c(O)c3[nH]2)C(=O)c2ccccc2C4=O)C1 has an IC50 (K562/4) of 1.2 µM, a selectivity ratio [1] of 3.3 and an IC50 at 72 h [2] of 4.3 µM. The IC50 (A549) was 4.3 µM, the “Ratio IC50” value [3] was 0.9 and the IC50 (K562) was 1.3 µM.

COc1cccc2c1C(=O)c1c(O)c3c(c(O)c1C2=O)C[C@@](O)(C(=O)CO)C[C@@H]3O[C@H]1C[C@H](N)[C@H](O)[C@H](C)O1 [DOXORUBICIN] gave an IC50 (K562/4) of 14 µM.

For CS(=O)(=O)O.O=C(N[C@@H]1CCNC1)c1cc2c(O)c3c(c(O)c2[nH]1)C(=O)c1ccccc1C3=O, the IC50 (K562/4) was 47 µM, the selectivity ratio [1] was 2.2 and the IC50 at 72 h [2] was 5 µM. For the same compound, the IC50 (A549) was 4 µM, the “Ratio IC50” value [3] was 20.4 and the IC50 (K562) was 2.3 µM.
